Reference: patent US20240000075A1, “FUNGICIDAL ARYL AMIDINES” (CORTEVA AGRISCIENCE LLC, priority 2020, published 2024)
Where two headings read alike, the source gives them in different places.

Experiments:
Phakopsora pachyrhizi = test: Asian soybean rust, whole-plant fungicidal activity (PHAKPA); type: in vivo; conditions: read-out: % Disease Control Rating PHAKPA
Summary of the method: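 Ten-day-old 'Williams 82' soybean seedlings sprayed to run-off with compound in acetone/water (1:9, 0.011% Tween-20), air-dried, then inoculated; 24 h dark dew room at 100% RH, then growth room. Disease severity scored 0–100% on sprayed leaves; percent control relative to untreated plants.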

Puccinia triticina = test: Wheat brown rust, whole-plant fungicidal activity (PUCCRT); type: in vivo, Puccinia triticina on wheat plants (variety 'Yuma'); conditions: 24 h, 1DP (1 day protectant), read-out: % Disease Control Rating PUCCRT
Summary of the method: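 Wheat 'Yuma' seedlings at first-leaf stage sprayed to run-off with compound from acetone stock diluted in nine volumes water containing 110 ppm Triton X-100, then inoculated with Puccinia triticina spores. Held overnight in dark dew room at 100% RH, then greenhouse for disease development.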

Zymoseptoria tritici = test: Septoria leaf blotch of wheat, whole-plant fungicidal activity (SEPTTR); type: in vivo, Zymoseptoria tritici on wheat plants (variety 'Yuma'); conditions: read-out: % Disease Control Rating SEPTTR
Summary of the method: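 Compounds in acetone, diluted with nine volumes of water containing 110 ppm Triton X-100, were sprayed to run-off on 'Yuma' wheat seedlings at full first-leaf emergence. Spore inoculation was 3 days before (3DC, curative) or 1 day after (1DP, protectant) treatment, then 3 days at 100% RH and greenhouse. First-leaf disease severity (0–100%) was scored relative to untreated plants as percent control.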

Rhynchosporium commune = test: Leaf blotch of barley, whole-plant fungicidal activity (RHYNSE); type: in vivo; conditions: 24 h, 1DP (1 day protectant), read-out: % Disease Control Rating RHYNSE
Summary of the method: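 Barley cv. 'Harrington' at full first-leaf emergence (7-10 seedlings per pot) was sprayed to run-off with compound in acetone plus nine volumes of water containing 110 ppm Triton X-100, air-dried, then inoculated with spore suspension. Plants spent two days in a dark dew room at 100% RH, then moved to greenhouse for disease development.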

CCN(C)/C=N/c1ccc(C(=O)CC2CCCC2)cc1C [Compound 75]
pest or weed control at 200 ppm (Phakopsora pachyrhizi; 24 h, 1DP (1 day protectant)): 20 to 50%
pest or weed control at 200 ppm (Phakopsora pachyrhizi; 72 h, 3DC (3 day curative)): > 85%
pest or weed control at 200 ppm (Puccinia triticina): > 85%
pest or weed control at 200 ppm (Zymoseptoria tritici; 24 h, 1DP (1 day protectant)): < 20%
pest or weed control at 200 ppm (Zymoseptoria tritici; 72 h, 3DC (3 day curative)): < 20%
pest or weed control at 200 ppm (Rhynchosporium commune): < 20%

CCN(C)/C=N/c1cc(C)c(C(=O)Cc2cccc(C(F)(F)F)c2)cc1C [Compound 5]
pest or weed control at 200 ppm (Phakopsora pachyrhizi; 24 h, 1DP (1 day protectant)): > 85%
pest or weed control at 200 ppm (Phakopsora pachyrhizi; 72 h, 3DC (3 day curative)): > 85%
melting point: 73 to 76 °C
pest or weed control at 200 ppm (Puccinia triticina): > 85%
pest or weed control at 200 ppm (Zymoseptoria tritici; 24 h, 1DP (1 day protectant)): 20 to 50%
pest or weed control at 200 ppm (Zymoseptoria tritici; 72 h, 3DC (3 day curative)): < 20%
pest or weed control at 200 ppm (Rhynchosporium commune): > 85%

Cc1cc(C(=O)Cc2c(F)cc(F)cc2F)c(C)cc1/N=C1\CCCCN1C [Compound 88]
pest or weed control at 200 ppm (Phakopsora pachyrhizi; 24 h, 1DP (1 day protectant)): 50 to 85%
pest or weed control at 200 ppm (Phakopsora pachyrhizi; 72 h, 3DC (3 day curative)): > 85%
pest or weed control at 200 ppm (Puccinia triticina): 50 to 85%
pest or weed control at 200 ppm (Zymoseptoria tritici; 24 h, 1DP (1 day protectant)): < 20%
pest or weed control at 200 ppm (Zymoseptoria tritici; 72 h, 3DC (3 day curative)): < 20%
pest or weed control at 200 ppm (Rhynchosporium commune): < 20%

CCN(C)/C=N/c1cc(C)c(C(=O)Cc2cccc(OC(F)F)c2)cc1C [Compound 84]
pest or weed control at 200 ppm (Phakopsora pachyrhizi; 24 h, 1DP (1 day protectant)): > 85%
pest or weed control at 200 ppm (Phakopsora pachyrhizi; 72 h, 3DC (3 day curative)): > 85%
pest or weed control at 200 ppm (Puccinia triticina): > 85%
pest or weed control at 200 ppm (Zymoseptoria tritici; 24 h, 1DP (1 day protectant)): < 20%
pest or weed control at 200 ppm (Zymoseptoria tritici; 72 h, 3DC (3 day curative)): < 20%
pest or weed control at 200 ppm (Rhynchosporium commune): > 85%

CCN(C)/C=N/c1cc(C)c(C(=O)Cc2ccc(F)cc2)cc1C [Compound 68]
pest or weed control at 200 ppm (Phakopsora pachyrhizi; 24 h, 1DP (1 day protectant)): > 85%
pest or weed control at 200 ppm (Phakopsora pachyrhizi; 72 h, 3DC (3 day curative)): > 85%
pest or weed control at 200 ppm (Puccinia triticina): > 85%
pest or weed control at 200 ppm (Zymoseptoria tritici; 24 h, 1DP (1 day protectant)): > 85%
pest or weed control at 200 ppm (Zymoseptoria tritici; 72 h, 3DC (3 day curative)): < 20%
pest or weed control at 200 ppm (Rhynchosporium commune): > 85%

CCN(C)/C=N/c1ccc(C(=O)CCCC(F)(F)F)c(C)c1C [Compound 14]
pest or weed control at 200 ppm (Phakopsora pachyrhizi; 24 h, 1DP (1 day protectant)): > 85%
pest or weed control at 200 ppm (Phakopsora pachyrhizi; 72 h, 3DC (3 day curative)): > 85%
melting point: 49 to 52 °C
pest or weed control at 200 ppm (Puccinia triticina): > 85%
pest or weed control at 200 ppm (Zymoseptoria tritici; 24 h, 1DP (1 day protectant)): < 20%
pest or weed control at 200 ppm (Zymoseptoria tritici; 72 h, 3DC (3 day curative)): < 20%
pest or weed control at 200 ppm (Rhynchosporium commune): < 20%

CCN(C)/C=N/c1cc(C)c(C(=O)C2CCC2)cc1C [Compound 25]
pest or weed control at 200 ppm (Phakopsora pachyrhizi; 24 h, 1DP (1 day protectant)): > 85%
pest or weed control at 200 ppm (Phakopsora pachyrhizi; 72 h, 3DC (3 day curative)): > 85%
pest or weed control at 200 ppm (Puccinia triticina): > 85%
pest or weed control at 200 ppm (Zymoseptoria tritici; 24 h, 1DP (1 day protectant)): 20 to 50%
pest or weed control at 200 ppm (Zymoseptoria tritici; 72 h, 3DC (3 day curative)): < 20%
pest or weed control at 200 ppm (Rhynchosporium commune): > 85%

Cc1cc(C(=O)CC2CCCCC2)c(C)cc1/N=C/N(C)C(C)C [Compound 59]
pest or weed control at 200 ppm (Phakopsora pachyrhizi; 24 h, 1DP (1 day protectant)): > 85%
pest or weed control at 200 ppm (Phakopsora pachyrhizi; 72 h, 3DC (3 day curative)): > 85%
pest or weed control at 200 ppm (Puccinia triticina): > 85%
pest or weed control at 200 ppm (Zymoseptoria tritici; 24 h, 1DP (1 day protectant)): > 85%
pest or weed control at 200 ppm (Zymoseptoria tritici; 72 h, 3DC (3 day curative)): > 85%
pest or weed control at 200 ppm (Rhynchosporium commune): > 85%

Cc1cc(C(=O)CC2CCCCC2)c(C)cc1/N=C/N(C)C1CC1 [Compound 60]
pest or weed control at 200 ppm (Phakopsora pachyrhizi; 24 h, 1DP (1 day protectant)): < 20%
pest or weed control at 200 ppm (Phakopsora pachyrhizi; 72 h, 3DC (3 day curative)): < 20%
pest or weed control at 200 ppm (Puccinia triticina): > 85%
pest or weed control at 200 ppm (Zymoseptoria tritici; 24 h, 1DP (1 day protectant)): < 20%
pest or weed control at 200 ppm (Zymoseptoria tritici; 72 h, 3DC (3 day curative)): < 20%
pest or weed control at 200 ppm (Rhynchosporium commune): < 20%

Cc1cc(C(=O)CC2CCCCC2)c(C)cc1/N=C(\S)N(C)C1CC1 [Compound 54]
pest or weed control at 200 ppm (Phakopsora pachyrhizi; 24 h, 1DP (1 day protectant)): > 85%
pest or weed control at 200 ppm (Phakopsora pachyrhizi; 72 h, 3DC (3 day curative)): 50 to 85%
pest or weed control at 200 ppm (Puccinia triticina): > 85%
pest or weed control at 200 ppm (Zymoseptoria tritici; 24 h, 1DP (1 day protectant)): > 85%
pest or weed control at 200 ppm (Zymoseptoria tritici; 72 h, 3DC (3 day curative)): < 20%
pest or weed control at 200 ppm (Rhynchosporium commune): < 20%

CCN(C)/C=N/c1cc(C)c(C(=O)Cc2ccccc2OC(F)(F)F)cc1C [Compound 33]
pest or weed control at 200 ppm (Phakopsora pachyrhizi; 24 h, 1DP (1 day protectant)): > 85%
pest or weed control at 200 ppm (Phakopsora pachyrhizi; 72 h, 3DC (3 day curative)): > 85%
pest or weed control at 200 ppm (Puccinia triticina): > 85%
pest or weed control at 200 ppm (Zymoseptoria tritici; 24 h, 1DP (1 day protectant)): > 85%
pest or weed control at 200 ppm (Zymoseptoria tritici; 72 h, 3DC (3 day curative)): 50 to 85%
pest or weed control at 200 ppm (Rhynchosporium commune): > 85%

CCN(C)/C=N/c1cc(C)c(C(=O)Cc2ccc(F)cc2F)cc1C [Compound 20]
pest or weed control at 200 ppm (Phakopsora pachyrhizi; 24 h, 1DP (1 day protectant)): > 85%
pest or weed control at 200 ppm (Phakopsora pachyrhizi; 72 h, 3DC (3 day curative)): > 85%
pest or weed control at 200 ppm (Puccinia triticina): > 85%
pest or weed control at 200 ppm (Zymoseptoria tritici; 24 h, 1DP (1 day protectant)): < 20%
pest or weed control at 200 ppm (Zymoseptoria tritici; 72 h, 3DC (3 day curative)): < 20%
pest or weed control at 200 ppm (Rhynchosporium commune): > 85%
